Experimental data as given in patent US7307063B2, “Melanocortin metallopeptides for treatment of sexual dysfunction” (Palatin Technologies, Inc., priority 2001, dated 2007).
Non-standard residues stand in square brackets, D forms with d. No end group written: not given here. *: point of attachment. Heptanoyl = CCCCCCC(=O)*; Nle = CCCC[C@H](N)C(=O)O

Assays:
MC4-R = biological target: T1, MC4-R (Homo sapiens, UniProt P32245); assay: Competitive binding assay: inhibition of 125I-NDP-α-MSH binding to HEK-293 membranes with cloned human receptor subtype 4; conditions: Table 6, mean of triplicate
T1 construct: expressed in transfected cells; host or cells: HEK-293
Experimental: (§1) Rhenium-complexed metallopeptides of the formulas given in Table 1 were prepared, with the metallopeptides complexed with rhenium using the rhenium transfer agent ReOCl3(PPh3)2 in the presence of 1,8-Diazabicyclo[5,4,0] undec-7-ene as a base, as disclosed in International Application PCT/US00/16396, filed Jun. 14, 2000, Melanocortin Metallopeptide Constructs, Combinatorial Libraries and Applications, incorporated by reference herein. Affinities of compounds were measured using membranes from HEK-293 cells containing cloned human melanocortin receptor subtypes 3, 4 and 5. MC1-R membranes were isolated from B16—F10 mouse melanoma cells. The assay tube also contained a chosen concentration of the test peptide of this invention, complexed to a rhenium metal ion as indicated, for determining its efficacy in inhibiting the binding of ^125I-NDP-α-MSH to its receptor. Non-specific binding was measured by complete inhibition of binding of ^125I-NDP-α-MSH in the assay with the presence of 1 μM α-MSH. 100% specific binding was defined as the difference in radioactivity (cpm) bound to cell membranes in the absence and presence of 1 μM α-MSH. The cpm obtained in presence of test compounds were normalized with respect to 100% specific binding to determine the percent inhibition of ^125I-NDP-α-MSH binding.
(§2) Peptide sequences set forth in Table 6 were prepared using conventional synthetic means. The resulting sequences were rhenium-complexed to form metallopeptides, with the metallopeptides complexed with rhenium using the rhenium transfer agent ReOCl3(PPh3)2 in the presence of 1,8-Diazabicyclo[5,4,0] undec-7-ene as a base. Percent inhibition was determined as in Example 1 using the Re-complexed metallopeptides, using the same methods as described therein. All measures are means of triplicate determinations.

MC1-R = biological target: T2, MC1-R (Mus musculus, UniProt Q01727); assay: Competitive binding assay: inhibition of 125I-NDP-α-MSH binding to membranes from B16-F10 mouse melanoma cells; conditions: Table 6, mean of triplicate
T2 construct: MC1-R membranes were isolated from B16—F10 mouse melanoma cells; endogenous in cells; host or cells: B16-F10 mouse melanoma cells
Experimental: as §1, §2

T2 sequence (Q01727 whole entry): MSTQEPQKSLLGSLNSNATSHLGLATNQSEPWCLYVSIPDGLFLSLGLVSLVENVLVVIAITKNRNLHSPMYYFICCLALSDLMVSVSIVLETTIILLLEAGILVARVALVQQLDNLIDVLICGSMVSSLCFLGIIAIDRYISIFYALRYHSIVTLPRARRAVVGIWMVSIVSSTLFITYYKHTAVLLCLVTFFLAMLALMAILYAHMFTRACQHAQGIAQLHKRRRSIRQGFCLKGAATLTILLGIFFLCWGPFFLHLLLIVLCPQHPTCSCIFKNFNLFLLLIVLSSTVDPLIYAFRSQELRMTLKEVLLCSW
T1 sequence (P32245 whole entry): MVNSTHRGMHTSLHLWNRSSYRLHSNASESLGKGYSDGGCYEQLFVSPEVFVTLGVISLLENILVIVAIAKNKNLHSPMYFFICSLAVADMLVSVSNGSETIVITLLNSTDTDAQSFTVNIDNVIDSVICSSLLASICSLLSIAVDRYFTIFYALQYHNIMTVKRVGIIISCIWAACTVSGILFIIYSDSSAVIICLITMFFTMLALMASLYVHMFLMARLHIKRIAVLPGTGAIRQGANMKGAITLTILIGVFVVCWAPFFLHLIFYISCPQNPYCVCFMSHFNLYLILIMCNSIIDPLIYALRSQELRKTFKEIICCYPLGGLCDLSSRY

| % Inhibition of Binding hMC4-R (MC4-R; 0.1 μM) | % Inhibition of Binding MC1-R (MC1-R; 0.1 μM) | % Inhibition of Binding hMC4-R (MC4-R; 1 μM) | % Inhibition of Binding MC1-R (MC1-R; 1 μM) | Substance |
| --- | --- | --- | --- | --- |
| 46% | 14% |  |  | Heptanoyl-Ser(Bzl)-D-Phe(4′-Cl)-Arg-Phe(2′-F)-Cys-NH2 |
| 97% | 78% |  |  | Heptanoyl-Ser(Bzl)-D-Phe(4′-Cl)-Arg-Nal 2′-Cys-Lys-NH2 |
| 13% | 6% |  |  | Heptanoyl-Ser(Bzl)-D-Phe(4′-Cl)-Arg-Tyr-Cys-NH2 |
| 67% | 27% |  |  | Heptanoyl-Ser(Bzl)-D-Phe(4′-Cl)-Arg-Phe(3′-Cl)-Cys-NH2 |
|  |  | 12% | 21% | FR[dW]CK-NH2 |
|  |  | 91% | 62% | Heptanoyl-Ser(Bzl)-D-Phe(2′-Cl)-Lys-Nal 2′-Cys-NH2 |
|  |  | 32% | 37% | [dF]R[dW]CW-NH2 |
|  |  | 97% | 48% | NH2-(CH2)6-CO-Ser(Bzl)-D-Phe(4′-Cl)-Arg-D-Trp-Cys-NH2 |
|  |  | 0% | 19% | Heptanoyl-Ser(Bzl)-D-Phe(4′-Cl)-Arg-Tyr(2′,6′-diCl-Bzl)-Cys-NH2 |
| 96% | 95% |  |  | Ac-Nle-Arg-Arg-D-Nal 2′-Cys-Trp-Lys-NH2 |
| 90% | 21% |  |  | Heptanoyl-Ser(Bzl)-D-Phe(4′-Br)-Arg-Trp-Cys-NH2 |
|  |  | 64% | 53% | Phe-Arg-Trp-Cys-Lys-NH2 (FRWCK-NH2; not fully specified; printed as Phe-Arg-Trp-Cys-Lys-NH2) |
|  |  | 98% |  | 1-Naphthylacetyl-Arg-Arg-D-Phe(4′-Cl)-Cys-Nal 2′-NH2 |
|  |  | 34% | 37% | FR[dW]CW-NH2 |
| 25% | 15% |  |  | Heptanoyl-Ser(Bzl)-D-Phe(4′-Cl)-Arg-Asp(OcHx)-Cys-NH2 |
|  |  | 0% | 22% | Ac-[Nle]A[dF][dC]R-NH2 |
|  |  | 71% | 88% | Heptanoyl-[dP][dF]RWCK-NH2 |
|  |  | 99% | 85% | 3′-Cl Phenyl acetyl-Arg-Arg-D-Phe(4′-CF3)-Cys-Trp-NH2 |
|  |  | 0% | 27% | Heptanoyl-Ser(Bzl)-D-Nal 2′-Gly-Trp-Cys-Lys-NH2 |
|  |  | 36% | 23% | Ac-Nle-Arg-Ala-D-Nal 2′-Cys-Lys-NH2 |
|  |  | 0% | 8% | Ac-KA[dF][dC]R-NH2 |
| 47% | 3% |  |  | Heptanoyl-Ser(Bzl)-D-Phe(4′-Cl)-Arg-Nal 1′-Cys-NH2 |
|  |  | 96% | 100% | Ac-Nle-Arg-Arg-D-Nal 2′-Cys-Lys-NH2 |
|  |  | 24% | 32% | Phe-Arg-Trp-Cys-Trp-NH2 (FRWCW-NH2; not fully specified; printed as Phe-Arg-Trp-Cys-Trp-NH2) |
|  |  | 92% | 4% | Heptanoyl-Ser(Bzl)-D-Phe(4′-Cl)-Arg-Thr(Bzl)-Cys-NH2 |
|  |  | 72% | 30% | Heptanoyl-Ser(Bzl)-D-Phe(4′-Cl)-Arg-Cys(Bzl)-Cys-NH2 |

| % Inhibition of Binding hMC4-R (MC4-R; 0.1 μM) | % Inhibition of Binding MC1-R (MC1-R; 0.1 μM) | % Inhibition of Binding hMC4-R (MC4-R; 1 μM) | % Inhibition of Binding MC1-R (MC1-R; 1 μM) | Substance |
| --- | --- | --- | --- | --- |
|  |  | 0% | 24% | Ac-WA[dF][dC]R-NH2 |
|  |  | 99% | 35% | Ser(Bzl)-D-Phe(4′-Cl)-Arg-Nal 2′-Cys-NH2 |
|  |  | 96% | 93% | 2′-Naphthyl acetyl-Arg-Arg-D-Phe(4′-Cl)-Cys-Trp-NH2 |
| 94% | 16% |  |  | Heptanoyl-Ser(Bzl)-D-Phe(4′-Cl)-Arg-Nal 2′-Cys-NH2 |
|  |  | 81% |  | D-Phe-Arg-Trp-Cys-Lys-NH2 ([dF]RWCK-NH2; also: metallopeptide) |
| 95% | 33% |  |  | Ser(Bzl)-D-Phe(4′-Cl)-Arg-Nal 2′-Cys-Lys-NH2 |
|  |  | 70% | 90% | D-Phe-Arg-Trp-Cys-Trp-NH2 ([dF]RWCW-NH2; also: metallopeptide) |
| 43% | 19% |  |  | Heptanoyl-Ser(Bzl)-D-Phe(4′-Cl)-Arg-Phe(3′-F)-Cys-NH2 |
|  |  | 5% | 46% | Heptanoyl-Ser(Bzl)-D-Phe(4′-Cl)-Gly-Nal 2′-Cys-Lys-NH2 |
|  |  | 52% | 97% | 3′-Cl-Phenylacetyl-Arg-Arg-D-Phe(4′-CH2PO3Et3)-Cys-Trp-NH2 |
|  |  | 82% | 27% | Heptanoyl-Ser(Bzl)-D-Phe(2′-Br)-Lys-Nal 2′-Cys-NH2 |
|  |  | 55% | 66% | [dF]R[dW]CK-NH2 |
|  |  | 50% | 33% | Ser(Bzl)-D-Phe(2′-Cl)-Lys-Nal 2′-Cys-NH2 |
|  |  | 41% | 87% | Ac-[Nle]AH[dF]RW[dC]K-NH2 |
|  |  | 82% | 65% | Ser(Bzl)-D-Phe(4′-Cl)-Arg-D-Trp-Cys-NH2 |
|  |  | 69% | 51% | D-Phe(2′-Cl)-Lys-Nal 2′-Cys-NH2 |
|  |  | 95% | 21% | 3′-Cl Phenyl acetyl-Arg-Ala-D-Phe(4′-CF3)-Cys-Trp-NH2 |
|  |  | 69% | 65% | 3′-Br-Phenylacetyl-Lys-Lys-D-Phe(4′-CH3)Cys-Lys-NH2 |
|  |  | 97% | 49% | Ac-Ser(Bzl)-D-Phe(4′-Cl)-Arg-Nal 2′-Cys-NH2 |
|  |  | 97% | 99% | Heptanoyl-P[dF]RWCK-NH2 |
|  |  | 3% | 15% | Ac-WA[dF][dC]RW-NH2 |
|  |  | 98% | 97% | 1′-Naphthyl acetyl-Arg-Arg-D-Phe(4′-Cl)-Cys-Trp-NH2 |
|  |  | 33% | 17% | Ph(CH2)3-CO-D-Phe(2′-Cl)-Lys-Nal 2′-Cys-NH2 |
| 92% | 12% |  |  | Heptanoyl-Ser(Bzl)-D-Phe(4′-Cl)-Arg-Tyr(3′-l)-Cys-NH2 |
|  |  | 99% | 84% | Ac-His-HyP(Bzl)-D-Phe(2′-Cl)-Arg-Nal 2′-Cys-NH2 |
|  |  | 19% | 20% | Heptanoyl-Ser(Bzl)-D-Phe(2′-Cl)-Lys-Phe-Cys-NH2 |
